According to ChEMBL document CHEMBL3124838, “Discovery of 6-aryl-azabenzimidazoles that inhibit the TBK1/IKK-ε kinases” (Bioorg Med Chem Lett, 2014):

Molecular target: Fibroblast growth factor receptor 3 (Homo sapiens) (UniProt P22607)
Assay: Inhibition of human FGFR3 assessed as residual activity at 1 uM relative to control

Sequence of Fibroblast growth factor receptor 3 (Homo sapiens) (P22607 23-806 limits assumed): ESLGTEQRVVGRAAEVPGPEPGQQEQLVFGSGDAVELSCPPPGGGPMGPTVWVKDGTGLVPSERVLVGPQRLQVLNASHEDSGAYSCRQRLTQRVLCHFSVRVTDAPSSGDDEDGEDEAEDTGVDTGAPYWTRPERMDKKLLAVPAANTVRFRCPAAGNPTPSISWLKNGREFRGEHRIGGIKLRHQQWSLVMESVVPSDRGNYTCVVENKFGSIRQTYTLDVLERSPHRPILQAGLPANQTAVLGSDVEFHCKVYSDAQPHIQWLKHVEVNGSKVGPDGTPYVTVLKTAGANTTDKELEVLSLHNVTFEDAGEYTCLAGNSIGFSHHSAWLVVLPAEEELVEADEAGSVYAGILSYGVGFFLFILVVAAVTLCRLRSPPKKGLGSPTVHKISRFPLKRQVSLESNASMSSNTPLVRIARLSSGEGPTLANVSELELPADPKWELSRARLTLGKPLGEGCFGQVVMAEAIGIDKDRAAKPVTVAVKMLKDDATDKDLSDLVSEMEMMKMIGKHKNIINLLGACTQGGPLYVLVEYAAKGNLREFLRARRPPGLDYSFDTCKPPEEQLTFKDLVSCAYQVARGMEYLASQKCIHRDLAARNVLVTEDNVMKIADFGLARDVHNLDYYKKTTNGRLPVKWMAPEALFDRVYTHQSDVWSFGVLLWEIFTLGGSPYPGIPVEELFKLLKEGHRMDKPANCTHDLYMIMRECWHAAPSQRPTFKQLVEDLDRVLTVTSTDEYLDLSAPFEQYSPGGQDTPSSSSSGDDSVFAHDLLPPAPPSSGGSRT

Activity [%] | SMILES
62 | COc1ccc(-c2nc3cc(-c4csc(C(=O)NCC(C)C)c4)cnc3[nH]2)cc1
79 | COc1ccc(-c2nc3cc(-c4csc(C(=O)NCCC(C)C)c4)cnc3[nH]2)cc1
80 | COc1ccc(-c2nc3cc(-c4csc(C(=O)NCC(C)(C)C)c4)cnc3[nH]2)cc1
